# Measurements as given in ChEMBL document CHEMBL5512664, “Emerging and Re-emerging Warheads for Targeted Covalent Inhibitors: An Update” (J Med Chem, 2024).
# How the values were obtained:
# [1] = molecular target: Replicase polyprotein 1ab (Severe acute respiratory syndrome coronavirus 2, UniProt P0DTD1); assay: Binding affinity to SARS-CoV-2 cysteine protease-Mpro assessed as inhibition constant
# [2] = molecular target: Replicase polyprotein 1ab (Severe acute respiratory syndrome coronavirus 2) (UniProt P0DTD1); assay: Binding affinity to SARS-CoV-2 cysteine protease-Mpro assessed as inactivation rate constant (Kinact)
# [3] = GSH reactivity in PBS buffer at pH 7.4 assessed as half life; assay type: ADME
# [4] = GSH reactivity in PBS buffer at pH 8 assessed as second-order reaction rate constants upto 200 uM by DTNB assay; assay type: ADME; settings: pH 8, 200 µM
# [5] = Reactivity rate at cyclic sulfonamide assessed as rate constant by CSA sulfenic-acid model; assay type: physicochemical
# [6] = molecular target: T1, Carbonic anhydrase 2 (Homo sapiens, UniProt P00918); assay: Binding affinity to carbonic anhydrase II (unknown origin) fragment assessed as rate of protein modification by measuring inactivation rate constant (Kinact)
# [7] = molecular target: T1, Carbonic anhydrase 2; assay: Rate of protein modification at carbonic anhydrase II (unknown origin) fragment assessed as inhibition constant
# [8] = Cysteine-reactive in peptide assessed as half life using fluorogenic monochlorobimane/zinc complex by measuring fluorescence intensity; assay type: ADME; settings: cysteine-containing peptide
# [9] = molecular target: T2, Tyrosine-protein kinase ABL1 (Homo sapiens, UniProt P00519); assay: Inhibition of recombinant ABL kinase (unknown origin) assessed as inhibition constant
# T2 sequence (P00519 whole entry): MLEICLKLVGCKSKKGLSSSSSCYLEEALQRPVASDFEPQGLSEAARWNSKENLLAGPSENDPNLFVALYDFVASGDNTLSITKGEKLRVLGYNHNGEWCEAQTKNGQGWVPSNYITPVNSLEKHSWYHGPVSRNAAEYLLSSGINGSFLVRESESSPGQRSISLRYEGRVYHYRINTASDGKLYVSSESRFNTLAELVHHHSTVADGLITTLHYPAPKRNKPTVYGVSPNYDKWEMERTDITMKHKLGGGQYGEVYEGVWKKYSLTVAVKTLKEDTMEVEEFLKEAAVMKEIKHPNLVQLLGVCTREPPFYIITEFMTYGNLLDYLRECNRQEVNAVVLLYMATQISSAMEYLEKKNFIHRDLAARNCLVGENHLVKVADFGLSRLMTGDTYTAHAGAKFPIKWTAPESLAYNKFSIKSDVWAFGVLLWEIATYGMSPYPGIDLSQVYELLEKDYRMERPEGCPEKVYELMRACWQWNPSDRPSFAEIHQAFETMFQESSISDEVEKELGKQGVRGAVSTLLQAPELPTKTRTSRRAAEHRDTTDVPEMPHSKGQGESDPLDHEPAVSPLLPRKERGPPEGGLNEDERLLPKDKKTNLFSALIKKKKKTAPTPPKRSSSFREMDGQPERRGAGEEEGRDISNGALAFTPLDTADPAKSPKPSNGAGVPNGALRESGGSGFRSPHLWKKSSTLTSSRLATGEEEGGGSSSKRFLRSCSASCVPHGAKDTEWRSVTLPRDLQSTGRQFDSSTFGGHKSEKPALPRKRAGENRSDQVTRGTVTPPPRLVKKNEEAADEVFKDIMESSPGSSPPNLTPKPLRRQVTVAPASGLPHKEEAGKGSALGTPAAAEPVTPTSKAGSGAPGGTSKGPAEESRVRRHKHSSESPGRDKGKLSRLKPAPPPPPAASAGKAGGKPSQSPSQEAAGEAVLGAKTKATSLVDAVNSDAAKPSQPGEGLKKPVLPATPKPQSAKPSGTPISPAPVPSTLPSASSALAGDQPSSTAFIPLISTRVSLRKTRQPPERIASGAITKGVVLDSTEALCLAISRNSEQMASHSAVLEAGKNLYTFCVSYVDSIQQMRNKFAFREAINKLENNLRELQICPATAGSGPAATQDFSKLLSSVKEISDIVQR
# [10] = molecular target: T2, Tyrosine-protein kinase ABL1; assay: Inhibition of recombinant ABL kinase (unknown origin) assessed as inactivation rate constant (Kinact)
# [11] = molecular target: T2, Tyrosine-protein kinase ABL1; assay: Inhibition of wild type N-terminal His tagged ABL kinase (unknown origin) using fluorescence-labelled substrate by off-chip mobility shift assay
# [12] = Reactivity of SuTEx assessed as aryl-AG modifications by measuring half life by HLPC analysis; assay type: physicochemical
# [13] = Reactivity of SuTEx assessed as aryl-LG modifications by measuring half life by HLPC analysis; assay type: physicochemical
# [14] = GSH reactivity in PBS buffer at pH 8 at 14 degC assessed as half life upto 200 uM; assay type: ADME
# [15] = molecular target: NAD-dependent protein deacylase sirtuin-5, mitochondrial (Homo sapiens) (UniProt Q9NXA8); assay: Inhibition of SIRT5 (unknown origin) assessed as reaction rate Kinact/Ki ratio
# NAD-dependent protein deacylase sirtuin-5, mitochondrial (Homo sapiens), sequence (Q9NXA8 37-310 limits assumed): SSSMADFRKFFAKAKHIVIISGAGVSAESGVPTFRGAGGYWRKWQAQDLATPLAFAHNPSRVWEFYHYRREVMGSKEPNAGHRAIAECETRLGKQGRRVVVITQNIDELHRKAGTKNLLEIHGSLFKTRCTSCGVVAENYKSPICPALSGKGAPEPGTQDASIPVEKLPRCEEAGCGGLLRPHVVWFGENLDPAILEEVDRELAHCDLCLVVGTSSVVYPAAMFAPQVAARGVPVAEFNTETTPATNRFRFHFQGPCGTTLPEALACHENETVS
# [16] = molecular target: NAD-dependent protein deacylase sirtuin-5, mitochondrial (Homo sapiens) (UniProt Q9NXA8); assay: Inhibition of SIRT5 (unknown origin) assessed as inactivation rate constant (Kinact)
# [17] = molecular target: E3 ubiquitin-protein ligase Mdm2 (Homo sapiens) (UniProt Q00987); assay: Binding affinity to human HDM2 assessed as rate constant of covalent modification (Kinact)
# E3 ubiquitin-protein ligase Mdm2 (Homo sapiens), sequence (Q00987 whole entry, looked up): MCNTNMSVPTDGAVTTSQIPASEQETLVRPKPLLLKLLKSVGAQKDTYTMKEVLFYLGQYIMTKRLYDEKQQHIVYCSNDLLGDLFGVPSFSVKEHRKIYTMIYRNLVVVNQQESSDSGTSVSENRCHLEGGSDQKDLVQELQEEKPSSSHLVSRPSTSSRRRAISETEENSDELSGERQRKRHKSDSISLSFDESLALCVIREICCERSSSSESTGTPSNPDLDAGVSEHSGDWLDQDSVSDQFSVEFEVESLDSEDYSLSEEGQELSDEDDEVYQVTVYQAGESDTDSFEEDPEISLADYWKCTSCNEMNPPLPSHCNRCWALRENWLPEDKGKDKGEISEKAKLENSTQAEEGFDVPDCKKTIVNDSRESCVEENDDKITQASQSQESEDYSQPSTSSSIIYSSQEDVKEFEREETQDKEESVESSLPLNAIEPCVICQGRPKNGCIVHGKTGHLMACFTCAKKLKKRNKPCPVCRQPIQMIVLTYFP
# [18] = molecular target: E3 ubiquitin-protein ligase Mdm2 (Homo sapiens) (UniProt Q00987); assay: Binding affinity to human HDM2 assessed as second-order rate constant (Kinact/Kd) ratio
# [19] = molecular target: Bromodomain-containing protein 4 (Homo sapiens) (UniProt O60885); assay: Binding affinity to his-tagged recombinant BRD4 BD1 (unknown origin) assessed as increase in thermal stability by measuring change in melting temperature after 4 hrs by cellular thermal shift assay
smiles,measurement,setting,value
O=C(NCCc1cccc(F)c1)[C@@H](c1cncnc1)N(C(=O)[C@@H](F)Cl)c1ccc(S(F)(F)(F)(F)F)cc1,Ki,[1],53.6 µM
same,Kin,[2],1.1 10^-3/s
CCCSc1nc2sc3c(c2c(=O)n1CC)CCc1ccccc1-3,half-life,[3],0.683 h
C=CC(=O)NCc1ccccc1,K,[4],0.003 M⁻¹ s⁻¹
C#CCCCC1CCC(=O)CC1=O (stereo not drawn),K,[5],10 M⁻¹ s⁻¹
NS(=O)(=O)c1cccc(CNS(=O)(=O)c2ccc(S(=O)(=O)F)cc2)c1,Kinact,[6],9.6 10^-5/s
same,Ki,[7],< 5 µM
NC(=O)C(F)Cl (stereo not drawn),half-life,[8],4.4 h
same,half-life,[3],17 h
C#CCN(C)C(=O)c1cncc(-c2cnc3[nH]cc(-c4cc(C=O)c(C#C)cc4OC)c3c2)c1,Ki,[9],3.2 µM
same,Kinact,[10],5.54 10^-3/s
same,IC50,[11],0.0028 µM
CC(NS(=O)(=O)c1ccc(S(=O)(=O)F)cc1)c1cccc(S(N)(=O)=O)c1 (stereo not drawn),Kinact,[6],1.7 10^-5/s
same,Ki,[7],< 5 µM
NC(=O)C(Br)Br,half-life,[3],< 1.67 h
COc1ccc(-c2ncn(S(=O)(=O)C3CC3)n2)cc1,half-life,[12],> 6 h
COc1ccc(-c2ncn(S(=O)(=O)c3ccc(F)cc3)n2)cc1,half-life,[13],0.237 h
Cc1ccc(S(=O)(=O)OCC(=O)NCc2ccccc2)cc1,K,[4],0.161 M⁻¹ s⁻¹
COc1ccc(-c2ncn(S(=O)(=O)c3ccc(-c4ccccc4)cc3)n2)cc1,half-life,[12],0.288 h
NS(=O)(=O)c1cccc(CNC(=O)c2ccc(S(=O)(=O)F)cc2)c1,Kinact,[6],12 10^-5/s
same,Ki,[7],< 5 µM
NS(=O)(=O)c1ccc(CCNC(=O)c2ccc(S(=O)(=O)F)cc2)cc1,Kinact,[6],0.89 10^-5/s
same,Ki,[7],< 5 µM
CS(=O)(=O)OCC(=O)NCc1ccccc1,K,[4],0.134 M⁻¹ s⁻¹
O=C(COS(=O)(=O)NCc1ccccc1)NCc1ccccc1,K,[4],0.02 M⁻¹ s⁻¹
same,half-life at up to 200 µM,[14],~12 h
C#CCCC(=O)C(SC[C@H](NC(=O)OCc1ccccc1)C(=O)N[C@H](C(=O)OC)C(C)C)[P+](c1ccccc1)(c1ccccc1)c1ccccc1 (stereo partly drawn),K,[5],15000 M⁻¹ s⁻¹
NS(=O)(=O)c1cccc(CNC(=O)Cc2ccc(S(=O)(=O)F)cc2)c1,Kinact,[6],0.73 10^-5/s
same,Ki,[7],< 5 µM
CN(C)C/C=C/C(N)=O,half-life,[8],0.51 h
C#CCOCCOCCOc1cccc(N2CCN(C(=O)C(F)F)CC2)c1,half-life,[3],129 h
Nc1ncnc2c1ncn2[C@@H]1O[C@H](CN(CC[C@H](N)C(=O)O)S(=O)(=O)c2ccc(Cl)c([N+](=O)[O-])c2)[C@@H](O)[C@H]1O,half-life,[3],< 0.0333 h
C#CCNC(=O)c1ccc(S(=O)(=O)N[C@@H](CCCCNC(=O)c2cncc(OS(=O)(=O)F)c2)C(=O)N[C@@H](CCCNC(=N)N)C(=O)NC2CCC2)cc1,Ratio,[15],2.9 M⁻¹ s⁻¹
same,Kinact,[16],2.83 10^-4/s
Nc1ncnc2c1ncn2[C@@H]1O[C@H](CN(CC[C@H](N)C(=O)O)S(=O)(=O)c2ccc(F)c([N+](=O)[O-])c2)[C@@H](O)[C@H]1O,half-life,[3],< 0.0333 h
CNS(=O)(=O)OCC(=O)NCc1ccccc1,K,[4],0.029 M⁻¹ s⁻¹
same,half-life at up to 200 µM,[14],~5 h
O=S(=O)(c1ccc(F)cc1)n1cnc(-c2ccccc2)n1,Kinact,[17],4.8 10^-4/s
same,Ratio,[18],8.4 10^2/M/s
same,half-life,[13],0.108 h
O=C(COS(=O)(=O)Nc1ccccc1)NCc1ccccc1,K,[4],0.009 M⁻¹ s⁻¹
NS(=O)(=O)c1cccc(CNC(=O)c2cccc(S(=O)(=O)F)c2)c1,Kinact,[6],21 10^-5/s
same,Ki,[7],< 5 µM
C#CCOCCOCCOc1cccc(N2CCN(C(=O)C(C)(F)Br)CC2)c1 (stereo not drawn),half-life,[3],> 167 h
NS(=O)(=O)c1ccc(CCNC(=O)Cc2ccc(S(=O)(=O)F)cc2)cc1,Kinact,[6],0.36 10^-5/s
same,Ki,[7],< 5 µM
COc1ccc(-c2ncn(S(=O)(=O)c3ccc(OC)cc3)n2)cc1,half-life,[12],3.04 h
CC(=O)N(C)c1ccccc1,half-life,[3],0.333 h
O=C(NCCc1cccc(F)c1)[C@@H](c1cncnc1)N(C(=O)[C@H](F)Cl)c1ccc(S(F)(F)(F)(F)F)cc1,Ki,[1],1.34 µM
same,Kinact,[2],5.6 10^-3/s
Cc1noc(C)c1-c1ccc(=O)n(Cc2ccc(C3CO3)cc2)c1 (stereo not drawn),ΔTm,[19],22 °C
CC(NC(=O)Cc1ccc(S(=O)(=O)F)cc1)c1cccc(S(N)(=O)=O)c1 (stereo not drawn),Kinact,[6],0.97 10^-5/s
same,Ki,[7],22 µM
